Test results reported in patent publication US11291739B2, “System and methods for sterilizing enclosed spaces using ozone” (Gene Therapy Systems, Inc., priority 2015, dated 2022).
Read-outs that look alike come from different tables or passages of the source.

What was measured:
[1] = test system: E. coli K-12 cells (strain DH5); experiment: Sterilization efficacy on LB agar plates loaded with E. coli in cell culture chamber; assay type: cell-based
Protocol: (§1) In tests #2 and #3, represented by lines 520 and 530, respectively, both the ozone generator and an ozone degrader were present in the cell culture chamber. The ozone degrader was formed of three activated carbon filters. With the ozone degrader present, the ozone generator was unable to achieve the peak ozone concentration seen in test #1. In tests #2 and #3, the ozone generator was run for 120 minutes and the concentration of ozone noticeably plateaued. The air within the cell culture chamber reached a peak ozone concentration of approximately 140-150 ppm ozone. After the ozone generator was turned off, the ozone began to break down at an accelerated rate with the activated carbon filters present. In both tests #2 and #3, the ozone levels reached a level of 0.01 ppm ozone within 15 minutes.
While the peak ozone concentrations reached in tests #2 and #3 were noticeably lower than the peak ozone concentration of test #1, the ozone levels in tests #2 and #3 were at least sufficient to achieve sterilization. In each of tests #2 and #3, sterilization efficacy was measured with the assistance of LB agar plates loaded with E. coli bacteria. As part of the experiment, E. coli K-12 cells (strain DH5) were grown overnight at 37° C. and the stationary phase was reached. […] The quantity of E. coli present was then analyzed and a photograph of each plate was taken.

[2] = Ozone breakdown over time in enclosed cell culture chamber (calibrated ozone analyzer); assay type: physicochemical
Protocol: In Experiment 1, an 1800 mg/hour ozone generator was placed in a 5.5 cubic feet cell culture. The ozone level within the chamber was monitored using a calibrated ozone analyzer. Ozone measurements were captured every 10 seconds. The experimental results, as represented by ozone level over time, are provided in the line graph of FIG. 10A. In test #1, represented by line 510, the ozone generator was run for 80 minutes and achieved a peak ozone concentration within the cell culture chamber of approximately 325 ppm. After the ozone generator was turned off, the ozone was left to break down naturally within the enclosed cell culture chamber. It took approximately 28 hours for the ozone to breakdown to 0.01 ppm ozone.
as §1, with “After the ozone generator was turned off, the ozone began to break down at an accelerated rate with the activated carbon filters present. In both tests #2 and #3, the ozone levels reached a level of 0.01 ppm ozone within 15 minutes.” left out

[3] = cited from earlier work
bacteriophage T1 = experiment: Effect of ozone on bacteriophage T1 spotted on LB agar plates; assay type: cell-based; details: ozone 4 hours, peak less than 150 ppm, silver-coated mesh generator; 10^6-10^9 pfu/mL spots; DH5 E. coli overlay, 72 hours
Protocol: In Experiment 2, the effect of ozone on bacteriophage T1 was studied. In the experiment, 2.5 μL of purified bacteriophage T1 was spotted in four quadrants of two LB agar plates—a test plate 610 and a control plate 620, shown in FIG. 11. The bacteriophage concentrations on each of the two plates were (clockwise from the spot in the upper right quadrant): 10^9 pfu/mL, 10^8 pfu/mL, 10^7 pfu/mL, and 10^6 pfu/mL.
The test plate 610 was placed in an incubator chamber containing both an ozone generator and an ozone degrader. The ozone generator included two ceramic plates surrounded substantially by a silver-coated metal mesh. The ozone generator was activated and the test plate 610 was treated with ozone for 4 hours. The ozone generator was then turned off, and the ozone degrader, formed of activated carbon filters, accelerated the conversion of ozone to oxygen. The peak ozone concentration level generated within the incubator chamber was less than 150 ppm ozone.
The control plate 620 was placed in a different incubator chamber and left untreated. After the ozone generation and degradation cycle completed in the incubator chamber containing the test plate 610, 1 mL of stationary DH5 E. coli bacteria and top agar were added to each plate and incubated at room temperature for 72 hours. The photograph in FIG. 11 was taken immediately following this 72-hour period.

O=[O+][O-] [ozone]
E. coli kill rate ([1]; test #2, ozone 120 minutes, peak approximately 140-150 ppm, then 15 minutes degradation, plates incubated at 37° C. overnight): 100% | quantity of E. coli present after treatment ([1]; test #2 test dish, control dish showed confluent growth): no E. coli was detected | time for ozone to break down to 0.01 ppm ([2]; test #1, natural breakdown from approximately 325 ppm, no ozone degrader, 5.5 cubic feet chamber): approximately 28 hours | time for ozone levels to reach 0.01 ppm ([2]; tests #2 and #3, from approximately 140-150 ppm, three activated carbon filters present): ≤ 15 min | half-life ([3]; in the air): 36 to 72 h | half-life ([3]; in water): 0.13 to 0.5 h | survival of the T1-phage (bacteriophage T1): negligible survival
